According to patent publication US8101180B2, “Anti-IGF-IR and/or anti-insulin/IGF-I hybrid receptors antibodies and uses thereof” (Pierre Fabre Medicament, priority 2002, dated 2012):

Assays:
A549 tumor = experiment: A549 non-small cell lung tumor subcutaneous xenograft; assay type: in vivo, nude mice; conditions: RDV, SDV […], 4 i.p. injections 7 days apart; conjugates […] agent and 250 μg/dose antibody
Experimental: Navelbine is a chemotherapy compound indicated in non-small cell cancer of the lung and in metastatic cancer of the breast. […] For this study, 5·10^6 A549 cells were grafted subcutaneously on the right flank of the mouse. Five days after the cell graft, the tumors are measurable and the treatments with MAb and/or navelbine are commenced. The MAb dose is always 250 μg/dose/mouse, twice per week, intra-peritoneally. Concerning navelbine, it will be administered at the maximum dose tolerated by the mouse or 10 mg/kg, intraperitoneally. For this treatment three injections will be carried out at intervals of 7 days. During the coadministrations, the two products are mixed before injection.
For this study, nude mice are grafted s.c. with 5·10^6 A549 cells. Five days after the cell graft, the tumors are measured and a homogeneous batch of mice in terms of tumor volume is formed. Starting from this batch, groups of 6 mice are generated at random.
To do this, 5·10^6 A549 cells were implanted subcutaneously in nude mice. Five days after this implantation, the tumors were measured and groups of 6 mice were formed. […] This granule is essential to the establishment of any E2-dependent human tumor in this animal species.
These conjugates are administered according to the same modes as the groups given the chemotherapy compounds alone; • the animals of the control batch are given injections of PBS, administered according to the same frequency.
The weight of the mice and the tumor volume are evaluated twice a week. The tumor volumes are calculated according to the formula: ½ (length·width·height).

P388 murine leukemia = P388 murine leukemia grafted intravenously, survival (T/C); assay type: in vivo, CDF1 mice
Experimental: The compound is administered intraperitoneally in a single dose on day 1. The protocol for this test is described by Kruczynski A. et al., Cancer Chemotherapy and Pharmacology, 1998, volume 41, pages 437 to 447.
Conventionally, the in vivo activity of cytotoxic compounds is expressed by the T/C at a dose expressed in mg per kg. The T/C corresponds to the ratio, multiplied by 100, of the median of the survival time of the treated animals to the median of the survival time of the control animals.
The protocol for this test is described by Kruczynski A. et al., Cancer Chemotherapy and Pharmacology, 1998, volume 41, pages 437 to 447.
To do this, a total of 10^6 P388 murine leukemia cells were implanted i.v. in CDF1 mice on day 0. After randomization of the animals in cages for treatment with each alkaloid and control cages, the compounds were administered i.p. on day 1.
Conventionally, the in vivo activity of compounds is expressed by the increase in survival time. The survival time is expressed by the T/C at a dose expressed in mg per kg (mg/kg). The T/C corresponds to the ratio, multiplied by 100, of the median of the survival time of the treated animals to the median of the survival time of the control animals. In agreement with the standard criteria of the NCl, a T/C of 120 corresponds to a minimum level for concluding that activity is present.
A T/C below 75 expresses toxicity of the test compound at the dose administered.

MCF-7 cells [1] = experiment: Apoptosis of MCF-7 cells (Annexin V-FITC/DAPI flow cytometry); assay type: cell-based, human; conditions: doxorubicin 2 μg/ml, 24 hours, IGF-I 50 ng/ml
Experimental: As indicated above, IGF-IR is capable of conferring protection against apoptosis when it is overexpressed on the surface of cells. […] In these experiments, the MCF-7 cells are inoculated at 2·10^4/cm^2 in Petri dishes and cultured for 24 h in RPMI without phenol red supplemented with 10% of fetal calf serum (FCS). The cells are then washed twice with PBS and put back into culture in medium with 0% FCS. They are allowed an adaptation time of 10 minutes at 37° C. before the addition of the antibodies at 10 μg/ml. After an extra 10 minutes at 37° C., recombinant IGF-I (Sigma) is added to the culture medium to a final concentration of 50 ng/ml. The cells are left at 37° C. again for one hour in order to allow the attachment of the antibodies and of the IGF-I. Finally, the doxorubicin (Sigma) is added to the culture medium at 2 μg/ml and the cells are incubated for 24 hours at 37° C.
The experiments have likewise been conducted with navelbine at a concentration of 10 μg/ml.
The analysis of the cell viability is carried out by flow cytometric analysis after labeling with the annexin V-FITC (20 minutes, 4° C.) and DAPI (2 μg/ml). The percentage of dead cells considered is the labeled population Annexin+/DAPI+. The antibody 5C2 is used as a control isotype.

MCF-7 cells [2] = experiment: Cell cycle of MCF-7 cells with IGF1; assay type: cell-based, human
Experimental: The inhibition of the cell growth observed in vitro on the line MCF-7 should be manifested by an effect on the cell cycle. In order to reply to this question, 4·10^5 cells are inoculated into 6-well plates. […] After incubation for 24 hours, the cells are recovered for the study of the cell cycle.

[3] = dose 0.63 mg/kg i.p. single dose day 1, T/C = median survival treated/control ×100, below 75 = toxicity
[4] = dose 1.25 mg/kg i.p. single dose day 1
[5] = dose 5 mg/kg i.p. single dose day 1
[6] = dose 10 mg/kg i.p. single dose day 1
[7] = after addition of IGF1, 24 hours ([…] in the absence of IGF1)

In the case of CCC1CC2CN(CCc3c([nH]c4ccccc34)[C@@](C(=O)OC)(c3cc4c(cc3OC)N(C)[C@H]3C(O)(C(=O)OC)[C@H](OC(C)=O)[C@]5(CC)C=CCN6CC[C@]43[C@@H]65)C2)C1 (stereo partly drawn) [4′-R-deoxyvinblastine, 4′-R deoxyvinblastine], the “A549 tumor growth, deoxyvinblastines alone or coupled to h7C10” value (A549 tumor) is reported as “evolve in the same manner as the control group”, the T/C (P388 murine leukemia; [3]) is reported as 100 and the T/C (P388 murine leukemia; [4]) is reported as 100. For the same molecule, the T/C (P388 murine leukemia; [5]) was 143, the T/C (P388 murine leukemia; [6]) was 200 and the T/C (P388 murine leukemia; dose 20 mg/kg i.p. single dose day 1) was 214. The T/C (P388 murine leukemia; dose 40 mg/kg i.p. single dose day 1) was 43.

With CC[C@@H]1C[C@@H]2CN(CCc3c([nH]c4ccccc34)[C@@](C(=O)OC)(c3cc4c(cc3OC)N(C)[C@H]3[C@@](O)(C(=O)OC)[C@H](OC(C)=O)[C@]5(CC)C=CCN6CC[C@]43[C@@H]65)C2)C1 [4′-S-deoxyvinblastine, 4′-S deoxyvinblastine] the “A549 tumor growth, deoxyvinblastines alone or coupled to h7C10” value (A549 tumor) was “evolve in the same manner as the control group”, the T/C (P388 murine leukemia; [3]) was 114 and the T/C (P388 murine leukemia; [4]) was 143. For the same molecule, the T/C (P388 murine leukemia; [5]) was 100 and the T/C (P388 murine leukemia; [6]) was 57.

For COc1cccc2c1C(=O)c1c(O)c3c(c(O)c1C2=O)C[C@@](O)(C(=O)CO)C[C@@H]3O[C@H]1C[C@H](N)[C@H](O)[C@H](C)O1 [doxorubicin, reference compound], the “apoptosis, percentage of MCF-7 cells” value (MCF-7 cells [1]) was 8%.

CC[C@]1(O)C[C@@H]2CN(CCc3c([nH]c4ccccc34)[C@@](C(=O)OC)(c3cc4c(cc3OC)N(C)[C@H]3[C@@](O)(C(=O)OC)[C@H](OC(C)=O)[C@]5(CC)C=CCN6CC[C@]43[C@@H]65)C2)C1 [vinblastine, reference compound] showed a T/C (P388 murine leukemia; [3]) of 114, a T/C (P388 murine leukemia; [4]) of 114 and a T/C (P388 murine leukemia; [5]) of 143. For the same molecule, the T/C (P388 murine leukemia; [6]) was 57.

For CC[C@]1(O)C[C@H]2CN(CCc3c([nH]c4ccccc34)[C@@](C(=O)OC)(c3cc4c(cc3OC)N(C=O)[C@H]3[C@@](O)(C(=O)OC)[C@H](OC(C)=O)[C@]5(CC)C=CCN6CC[C@]43[C@@H]65)C2)C1 [vincristine, reference compound], the T/C (P388 murine leukemia; [3]) was 114, the T/C (P388 murine leukemia; [4]) was 143 and the T/C (P388 murine leukemia; [5]) was 100. It also gave a T/C (P388 murine leukemia; [6]) of 57.

In the case of “IGF1: insulin-like growth factor 1, native ligand of IGF-IR”, the “proportion of MCF-7 cells in G2/M phase” value (MCF-7 cells [2]; after addition of IGF1, 24 hours (4% in the absence of IGF1)) is reported as 12.7%, the “proportion of MCF-7 cells in G0/G1 phase” value (MCF-7 cells [2]; [7]) is reported as 56.3% and the “proportion of MCF-7 cells in S phase” value (MCF-7 cells [2]; [7]) is reported as 31%.
